Test results published in patent US12630498B2 (Genzyme Corporation, priority 2019, dated 2026).

Experiments:
[1] = molecular target: T1, human Cystic Fibrosis Transmembrane Conductance Regulator (CFTR) harboring the ΔF508 mutation (Homo sapiens, UniProt P13569, DEL508-508); assay: H441 cell ΔF508-CFTR-HRP cell surface assay (Emax and EC50); type: cell-based; settings: for Emax: NCI-H441, NA = Not active
T1 construct: expressed in transfected cells; host or cells: H441 carcinoma line (G418-selected)
In short: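 H441 and 41o- bronchial epithelial cells expressing ΔF508-CFTR with an extracellular-loop-4 HRP tag were treated with a 15-point compound series (24.5–0.001 μM) for two nights, H441 at 27° C, 41o- at 37° C with 0.0005 mg/ml doxycycline. Surface HRP luminescence read; % of maximum VX809 signal and EC50 derived.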

[2] = molecular target: T2, CFTR-mediated transepithelial chloride transport in primary human bronchial epithelial cells from a ΔF508 homozygous CF donor (Homo sapiens, UniProt P13569, DEL508-508); assay: TECC24 recording of CFTR-mediated transepithelial chloride transport in CF-HBE cells (AUC fold over DMSO); type: cell-based; settings: test agent 10 μM, 48 hours incubation, AUC of forskolin-stimulated IEQ relative to DMSO
T2 construct: Primary human bronchial epithelial cells from a ΔF508 homozygous CF donor; host or cells: primary CF-HBE cells, ΔF508 homozygous donor
Experimental: Example 316: TECC24 AUC Fold Over DMSO @ 10 uM
The effects of a test agent on CFTR-mediated transepithelial chloride transport was measured using TECC24 recording analysis. Test agents were solubilized in DMSO. Solubilized test agents were mixed with incubation medium containing DMEM/F12, Ultroser G (2%; Crescent Chemical, catalog #67042), Hyclone Fetal Clone II (2%; GE Healthcare, catalog #SH30066.02), bovine brain extract (0.25%; Lonza, catalog #CC-4098), insulin (2.5 μg/mL), IL-13 (10 ng/mL), hydrocortisone (20 nM), transferrin (2.5 μg/mL), triiodothyronine (500 nM), ethanolamine (250 nM), epinephrine (1.5 μM), phosphoethanolamine (250 nM), and retinoic acid (10 nM). Primary human bronchial epithelial cells from a ΔF508 homozygous CF donor (CF-HBE cells; from University of North Carolina Cystic Fibrosis Tissue Procurement Center), grown on Transwell HTS 24-well cell culture inserts (Costar, catalog #3378), were exposed to test agents or controls dissolved in incubation medium. The CF-HBE cells were cultured at 36.5° C. for 48 hours before TECC24 recordings were performed in the presence or absence of test agent, a positive control or vehicle (DMSO).
Following incubation, the transwell cell culture inserts containing the test agent or control-treated CF-HBE cells were loaded onto a TECC24 apparatus (TECC v7 or MTECC v2; EP Design) to record the transepithelial voltage (VT) and resistance (TEER) using 4 AgCl electrodes per well configured in current-clamp mode. The apical and basolateral bath solutions both contained (in mM) 140 NaCl, 5 KCl, 2 CaCl2), 1 MgCl2, 10 Hepes, and 10 glucose (adjusted to pH 7.4 with NaOH). To inhibit basal Na+ absorption, the ENaC inhibitor benzamil (10 μM) was added to the bath. Then, the adenylate cyclase activator, forskolin (10 μM), was added to the bath to activate CFTR. The forskolin-stimulated Cl-transport was halted by addition of CFTR inhibitor-172 (20 μM) to the bath at the end of the experiment to confirm specificity. VT and TEER recordings were digitally acquired at routine intervals using TECC or MTECC software (EP Design). VT and TEER were transformed into equivalent transepithelial Cl-current (IEQ), and the Area Under the Curve (AUC) of the IEQ time course between forskolin and CFTR inhibitor-172 addition was generated using Excel (Microsoft). Efficacy is expressed as the ratio of the test agent AUC divided by vehicle AUC. EC50s based on AUC are generated using the non-linear regression log(agonist) vs. response function in Prism software (GraphPad) with Hill Slope fixed=1.
If a test agent increased the AUC of the forskolin-stimulated IEQ relative to vehicle in CF-HBE cells, and this increase was inhibited by CFTR inhibitor-172, then the test agent was considered a CFTR corrector.

T2 sequence (P13569 with tags, fused parts or gaps DEL508-508): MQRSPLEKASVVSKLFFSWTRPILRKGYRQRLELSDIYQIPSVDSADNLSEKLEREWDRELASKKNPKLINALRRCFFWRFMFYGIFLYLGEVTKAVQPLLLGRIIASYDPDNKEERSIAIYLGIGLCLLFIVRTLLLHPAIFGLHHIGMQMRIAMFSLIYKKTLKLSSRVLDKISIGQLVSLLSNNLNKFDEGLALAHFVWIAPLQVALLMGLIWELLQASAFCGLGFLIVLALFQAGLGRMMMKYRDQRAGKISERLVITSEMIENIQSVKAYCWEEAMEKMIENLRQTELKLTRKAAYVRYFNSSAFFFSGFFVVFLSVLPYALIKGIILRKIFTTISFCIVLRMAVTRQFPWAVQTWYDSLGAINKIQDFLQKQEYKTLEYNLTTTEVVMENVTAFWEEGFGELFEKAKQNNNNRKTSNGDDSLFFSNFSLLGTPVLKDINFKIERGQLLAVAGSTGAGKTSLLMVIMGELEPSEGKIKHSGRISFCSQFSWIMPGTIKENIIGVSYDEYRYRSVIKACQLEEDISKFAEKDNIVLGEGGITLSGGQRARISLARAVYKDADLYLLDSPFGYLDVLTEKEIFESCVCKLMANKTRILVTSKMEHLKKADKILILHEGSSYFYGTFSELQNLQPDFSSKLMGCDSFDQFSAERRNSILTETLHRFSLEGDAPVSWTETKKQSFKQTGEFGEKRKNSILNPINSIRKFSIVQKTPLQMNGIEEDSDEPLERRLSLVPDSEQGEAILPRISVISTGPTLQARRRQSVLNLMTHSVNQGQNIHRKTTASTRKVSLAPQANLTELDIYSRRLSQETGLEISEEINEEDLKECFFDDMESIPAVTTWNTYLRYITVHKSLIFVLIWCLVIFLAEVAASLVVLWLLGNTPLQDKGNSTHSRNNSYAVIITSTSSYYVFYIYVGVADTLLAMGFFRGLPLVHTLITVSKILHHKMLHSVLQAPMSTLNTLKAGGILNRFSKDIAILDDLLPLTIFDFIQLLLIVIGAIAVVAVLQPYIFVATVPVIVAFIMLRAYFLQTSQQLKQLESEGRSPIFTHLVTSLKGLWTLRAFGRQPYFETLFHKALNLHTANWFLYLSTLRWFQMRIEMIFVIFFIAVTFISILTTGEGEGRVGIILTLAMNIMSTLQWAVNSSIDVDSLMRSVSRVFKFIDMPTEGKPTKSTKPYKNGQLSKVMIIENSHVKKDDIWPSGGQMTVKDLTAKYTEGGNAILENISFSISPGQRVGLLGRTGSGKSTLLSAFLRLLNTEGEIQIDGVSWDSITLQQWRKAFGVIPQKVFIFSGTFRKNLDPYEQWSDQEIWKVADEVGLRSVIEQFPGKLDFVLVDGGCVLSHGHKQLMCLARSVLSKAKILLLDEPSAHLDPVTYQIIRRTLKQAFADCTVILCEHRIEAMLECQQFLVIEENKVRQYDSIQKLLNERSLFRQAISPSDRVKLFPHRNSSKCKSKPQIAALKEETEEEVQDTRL
T1 sequence (P13569 with tags, fused parts or gaps DEL508-508): as above

EC50 [1]	Emax [1]	TECC24 AUC fold over DMSO @10 μM [2]	SMILES
4600 nM	98.8%	C (“C” refers to AUC @10 uM <4)	CC(C)(C)[C@H](NC(=O)c1ccc2ccccc2c1OC[C@H]1CC[C@@H](C(F)(F)F)CC1)C(=O)O [Example 26, (S)-3,3-dimethyl-2-(1-(((1s,4R)-4-(trifluoromethyl)cyclohexyl)methoxy)-2-naphthamido)butanoic Acid]
8000 nM	77.1%	C (“C” refers to AUC @10 uM <4)	CC(C)(C)[C@H](NC(=O)c1ccc2ccccc2c1OCc1ccc(C#N)cc1)C(=O)O [Example 31, (S)-2-(1-((4-cyanobenzyl)oxy)-2-naphthamido)-3,3-dimethylbutanoic Acid]
300 nM	195%	C (“C” refers to AUC @10 uM <4)	CC(C)(C)[C@H](NC(=O)c1ccc2ccccc2c1OCc1ccc(C(F)(F)C(F)(F)F)cc1)C(=O)O [Example 37, (S)-3,3-dimethyl-2-(1-((4-(perfluoroethyl)benzyl)oxy)-2-naphthamido)butanoic Acid]
300 nM	100%	C (“C” refers to AUC @10 uM <4)	CC1([C@H](NC(=O)c2ccc3cc(F)ccc3c2OCc2ccc(C(F)(F)F)cc2)C(=O)O)CCCCC1 [Example 40, (S)-2-(6-fluoro-1-((4-(trifluoromethyl)benzyl)oxy)-2-naphthamido)-2-(1-methylcyclohexyl)acetic Acid]
900 nM	117%	C (“C” refers to AUC @10 uM <4)	CC(C)(C)[C@H](NC(=O)c1ccc2ccccc2c1OCc1ccc(Cl)c(Cl)c1)C(=O)O [Example 47, (S)-2-(1-((3,4-dichlorobenzyl)oxy)-2-naphthamido)-3,3-dimethylbutanoic Acid]
600 nM	115%	B (“B” refers to AUC @10 uM between 4-6)	CCC(C)(C)[C@H](NC(=O)c1ccc2ccccc2c1OCc1ccc(SC(F)(F)F)cc1)C(=O)O [Example 55, (S)-3,3-dimethyl-2-(1-((4-((trifluoromethyl)thio)benzyl)oxy)-2-naphthamido)pentanoic Acid]
2700 nM	132%	C (“C” refers to AUC @10 uM <4)	CC(C)(C)[C@H](NC(=O)c1ccc2cc(F)ccc2c1OCc1nc2ccccc2s1)C(=O)O [Example 61, (S)-2-(1-(benzo[d]thiazol-2-ylmethoxy)-6-fluoro-2-naphthamido)-3,3-dimethylbutanoic Acid]

Further lines, the compound ahead of its results:

SMILES	EC50 [1]	Emax [1]	TECC24 AUC fold over DMSO @10 μM [2]
CC(C)(C)[C@H](NC(=O)c1ccc2cc(F)ccc2c1OCc1ccc(C(F)(F)F)cc1)C(=O)O [Example 27, (S)-2-(6-fluoro-1-((4-(trifluoromethyl)benzyl)oxy)-2-naphthamido)-3,3-dimethylbutanoic Acid]	600 nM	134%	B (“B” refers to AUC @10 uM between 4-6)
COC(=O)c1ccc(COc2c(C(=O)N[C@H](C(=O)O)C(C)(C)C)ccc3ccccc23)cc1 [Example 28, (S)-2-(1-((4-(methoxycarbonyl)benzyl)oxy)-2-naphthamido)-3,3-dimethylbutanoic Acid]	4900 nM	70.2%	C (“C” refers to AUC @10 uM <4)
CC(C)(C)[C@H](NC(=O)c1ccc2ccccc2c1OCc1ccc(SC(F)(F)F)cc1)C(=O)O [Example 35, (S)-3,3-dimethyl-2-(1-((4-((trifluoromethyl)thio)benzyl)oxy)-2-naphthamido)butanoic Acid]	600 nM	86.4%	A (“A” refers to AUC @10 uM >6)
CC1(C(NC(=O)c2ccc3ccccc3c2OCc2ccc(SC(F)(F)F)cc2)C(=O)O)CCCCC1 (stereo not drawn) [Example 36, 2-(1-methylcyclohexyl)-2-(1-((4-((trifluoromethyl)thio)benzyl)oxy)-2-naphthamido)acetic Acid]	700 nM	133%	B (“B” refers to AUC @10 uM between 4-6)
CC(C)(C)[C@H](NC(=O)c1ccc2ccccc2c1OCC1CC2CCC1C2)C(=O)O (stereo partly drawn) [Example 41, (2S)-2-(1-(bicyclo[2.2.1]heptan-2-ylmethoxy)-2-naphthamido)-3,3-dimethylbutanoic Acid]	3700 nM	112%	C (“C” refers to AUC @10 uM <4)
CC(C)(C)[C@H](NC(=O)c1ccc2cc(F)ccc2c1OCC1CCCCC1)C(=O)O [Example 45, (S)-2-(1-(cyclohexylmethoxy)-6-fluoro-2-naphthamido)-3,3-dimethylbutanoic Acid]	1800 nM	94.7%	C (“C” refers to AUC @10 uM <4)
CC1(C(NC(=O)c2ccc3ccccc3c2OCc2ccc(S(F)(F)(F)(F)F)cc2)C(=O)O)CCCCC1 (stereo not drawn) [Example 48, 2-(1-methylcyclohexyl)-2-(1-((4-(pentafluoro-16-sulfanyl)benzyl)oxy)-2-naphthamido)acetic Acid]	700 nM	112%	C (“C” refers to AUC @10 uM <4)
CC1(C(NC(=O)c2ccc3cc(F)ccc3c2OCc2ccc(S(F)(F)(F)(F)F)cc2)C(=O)O)CCCCC1 (stereo not drawn) [Example 50, 2-(6-fluoro-1-((4-(pentafluoro-16-sulfanyl)benzyl)oxy)-2-naphthamido)-2-(1-methylcyclohexyl)acetic Acid]	400 nM	57.8%	C (“C” refers to AUC @10 uM <4)
CC(C)(C)[C@H](NC(=O)c1cc(Br)c2ccccc2c1OCc1ccc(C(F)(F)F)cc1)C(=O)O [Example 51, (S)-2-(4-bromo-1-((4-(trifluoromethyl)benzyl)oxy)-2-naphthamido)-3,3-dimethylbutanoic Acid]	400 nM	200%	C (“C” refers to AUC @10 uM <4)
CC(C)(C)[C@H](NC(=O)c1ccc2cc(N)ccc2c1OCc1ccc(C(F)(F)F)cc1)C(=O)O [Example 52, (S)-2-(6-amino-1-((4-(trifluoromethyl)benzyl)oxy)-2-naphthamido)-3,3-dimethylbutanoic Acid]	7300 nM	91.4%	C (“C” refers to AUC @10 uM <4)
CC1(C(NC(=O)c2ccc3ccccc3c2OCc2ccc(C(F)(F)F)cc2)C(=O)O)CC1 (stereo not drawn) [Example 56, 2-(1-methylcyclopropyl)-2-(1-((4-(trifluoromethyl)benzyl)oxy)-2-naphthamido)acetic Acid]	1700 nM	127%	C (“C” refers to AUC @10 uM <4)
CC(C)(C)[C@H](NC(=O)c1ccc2ccccc2c1OCc1ccc(S(=O)(=O)C(F)(F)F)cc1)C(=O)O [Example 57, (S)-3,3-dimethyl-2-(1-((4-((trifluoromethyl)sulfonyl)benzyl)oxy)-2-naphthamido)butanoic Acid]	1500 nM	87.9%	C (“C” refers to AUC @10 uM <4)
CC(C)(C)[C@H](NC(=O)c1ccc2ccccc2c1OCc1nc2ccccc2s1)C(=O)O [Example 58, (S)-2-(1-(benzo[d]thiazol-2-ylmethoxy)-2-naphthamido)-3,3-dimethylbutanoic Acid]	2800 nM	139%	C (“C” refers to AUC @10 uM <4)
CC(C)(C)[C@H](NC(=O)c1ccc2cc(O)ccc2c1OCc1ccc(C(F)(F)F)cc1)C(=O)O [Example 59, (S)-2-(6-hydroxy-1-((4-(trifluoromethyl)benzyl)oxy)-2-naphthamido)-3,3-dimethylbutanoic Acid]	1900 nM	108%	C (“C” refers to AUC @10 uM <4)
